From BindingDB's records for doi:10.1021/jm9701583 (R.W. Johnson Pharmaceutical Research Institute, 1997)

These molecules were tested against DNA gyrase (Escherichia coli) (assay: Inhibition of supercoiling activity of DNA gyrase in Escherichia coli).

| SMILES | IC50 [µM] |
| --- | --- |
| CC(c1ccc2c(c1)Nc1ccccc1S2)N(O)C(=O)c1ccccc1-c1ccccc1C(=O)O (stereo unspecified) | 1360 |
| CC(c1ccc2oc(-c3ccccc3)cc2c1)N(O)C(=O)c1ccccc1-c1ccccc1C(=O)O (stereo unspecified) | 121 |
| CC(c1ccc(N2CCN(c3ccccc3)CC2)cc1)N(O)C(=O)c1ccccc1-c1ccccc1C(=O)O (stereo unspecified) | > 958 |
| CC(c1ccc2c(ccc3ccccc32)c1)N(O)C(=O)c1ccccc1-c1ccccc1C(=O)O (stereo unspecified) | 205 |
| CC(c1ccccc1)N(O)C(=O)c1ccccc1-c1ccccc1C(=O)O (stereo unspecified) | > 1380 |
| COc1cc(C(C)N(O)C(=O)c2ccccc2-c2ccccc2C(=O)O)cc(OC)c1OC (stereo unspecified) | > 1100 |
